Laboratory results from patent publication US20080194529A1 (AUSPEX PHARMACEUTICALS, INC., priority 2007, published 2008).

Assays:
[1] = assay type: in vitro ADME; conditions: topical or ocular, 5 microgram per mL
Description: Liver microsomal stability assays were conducted at 1 mg per mL liver microsome protein with an NADPH-generating system in 2% NaHCO3 (2.2 mM NADPH, 25.6 mM glucose 6-phosphate, 6 units per mL glucose 6-phosphate dehydrogenase and 3.3 mM MgCl2). Test compounds were prepared as solutions in 20% acetonitrile-water and added to the assay mixture (final assay concentration 5 microgram per mL) and incubated at 37° C. Final concentration of acetonitrile in the assay were <1%. Aliquots (50 μL) were taken out at times 0, 15, 30, 45, and 60 minutes, and diluted with ice cold acetonitrile (200 μL) to stop the reactions. Samples were centrifuged at 12000 RPM for 10 minutes to precipitate proteins. Supernatants were transferred to microcentrifuge tubes and stored for LC/MS/MS analysis of the degradation half-life of the test compounds.

[2] = cited from earlier work

SMILES	increase in the degradation half-life as compared to the non-isotopically enriched drug (udenafil) [1]	side effects of chromatopsia, such as sensitivity to light and blurred vision, in patients taking the drug [2] [%]
[2H]C([2H])(CC)c1nn(C([2H])([2H])[2H])c2c(=O)[nH]c(-c3cc(S(=O)(=O)NCCC4CCCN4C)ccc3OCCC)nc12 (stereo not drawn) [Example 4, d5-3-(1-Methyl-7-oxo-3-propyl-6,7-dihydro-1H-pyrazolo[4,3-d]pyrimidin-5-yl)-N-[2-(1-methyl-pyrrolidin-2-yl)-ethyl]-4-propoxy-benzenesulfonamide]	12-15%	
[2H]C([2H])(CC)c1nn(C)c2c(=O)[nH]c(-c3cc(S(=O)(=O)NCCC4CCCN4C)ccc3OCCC)nc12 (stereo not drawn) [Example 5, d2-3-(1-Methyl-7-oxo-3-propyl-6,7-dihydro-1H-pyrazolo[4,3-d]pyrimidin-5-yl)-N-[2-(1-methyl-pyrrolidin-2-yl)-ethyl]-4-propoxy-benzenesulfonamide]	12-15%	
CN1CC(=O)N2[C@H](c3ccc4c(c3)OCO4)c3[nH]c4ccccc4c3C[C@@H]2C1=O [tadalafil]		< 0.1
